How the values were obtained:
[1] = patients who discontinued ICS and LABA, 12 weeks; placebo 41%; cited from earlier work
[2] = system: Th2 cell population in human PBMC; experiment: Th2 cell population in human PBMC culture (flow cytometry); format: cell-based; design: key: −: no inhibition; +: weak; ++: moderate; +++: strong inhibition; settings: IL-2 (10 unit/mL) and three alarmins (10 ng/ml), 5 days
From the text: (§1) While alarmins are known to work in concert to enhance ILC2 and Th2 cell functions such as increase in cell population, steroids such as Dexamethasone (Dex) can negate these effects, resulting in the mitigation of type 2 immune responses [Jia, Yi et al. American Journal Of Respiratory Cell And Molecular Biology, vol. 55, 5 (2016): 675-683]. ILC2 and Th2 cell population can be determined by flow cytometry (BD FACSVerse) following standard procedures known to those skilled in the art.

[3] = system: ILC2 population in human PBMC; experiment: ILC2 cell population in human PBMC culture (flow cytometry); format: cell-based; design: key: −: no inhibition; +: weak; ++: moderate; +++: strong inhibition; settings: IL-2 (10 unit/mL) and three alarmins (10 ng/ml), 5 days
From the text: as §1

Row | Compound | rate of loss of asthma control [1] | Cell proliferation inhibition, Th2 [2] | Cell proliferation inhibition, ILC2 [3]
1 | Dupilumab: anti-IL-4Ra antibody inhibiting both IL-4 and IL-13 responses [reference compound] | 19% |  | 
2 | C[C@@H]1C[C@H]2[C@@H]3CCC4=CC(=O)C=C[C@]4(C)[C@@]3(F)[C@@H](O)C[C@]2(C)[C@@]1(O)C(=O)CO [Dex, Dexamethasone, reference compound] |  | +++ | +
